This passage reports IC50 results from patent US12291522B2, “Galectin-3 inhibitors” (BRISTOL-MYERS SQUIBB COMPANY, priority 2020, dated 2025).

Assay [1] has as its target T1, hCRBN (NanoLuc-CRBN fusion construct in HEK-293 cells) (Homo sapiens, UniProt Q96SW2).
T1 construct: expressed in transfected cells; host or cells: HEK-293
The experiment in a line: CRBN BRET Target Engagement. It is filed as cell-based. Conditions: NanoLuc-CRBN transfected HEK-293 cells, BRET with CRBN Probe. Here is the method: CRBN BRET Target Engagement (hCRBN IC50 (μM))
NanoLuc-CRBN fusion construct was transfected in HEK-293 cells using FuGENE HD (Promega) according to the manufacturer's protocol. In brief, Nluc-CRBN was diluted into Transfection Carrier DNA (Promega) 1:10 (mass/mass), to which FuGENE HD was 1:3 (μg DNA:μL FuGENE HD). One part (vol) of DNA:FuGENE HD complexes were combined with 20 parts (vol) of HEK-293 cells suspended at a density of […]. Cells were incubated for ˜20 hr at 37° C./5% CO2. Following transfection, cells were washed and resuspended at 200,000 cells/mL in OptiMEM without phenol red (Gibco).
For BRET measurements, cells were seeded in a 384-well nonbinding surface plate (Corning) plate for a final count of 10,000 cells/well. Compounds were dissolved at 10 mM in dimethylsulfoxide (DMSO) and evaluated at eleven concentrations using a high concentration of […]. CRBN Probe was used for equilibrium measurements, employing a final concentration of approximately EC50-80. For live-cell measurements, 20 nM of CRBN Probe was added. For the live-cell assay conditions, the plates were incubated for 2 hours at 37° C./5% CO2. NanoBRET NanoGlo Substrate and Extracellular Nanoluc Inhibitor (Promega) were added according to manufacturer's guidelines. For lytic cell measurements, digitonin was added to the cells to a final concentration of 50 μg/mL and 20 nM of CRBN Probe was added. To measure NanoBRET in permeabilized cells, extracellular Nluc inhibitor was omitted during the detection step. For all BRET experiments, the Envision 2015 (Perkin Elmer) equipped with a BRET2 Enh mirror, BRET 647 nM/75 nM Bandwidth and BC703 460 nM/80 nM Bandwidth filters was used for readouts. Each read was integrated for 0.5 s.
To determine compound potency (IC50), BRET ratios for each dilution series was first normalized to a % Inhibition value via Equation 1, where “S” represents Sample BRET, “B” represents Background BRET, and “T” represents Total BRET. In this equation, the background control (B) consists of NanoLuc-CRBN expressing cells and no CRBN Probe. The total BRET Ratio (T) consists of NanoLuc-CRBN expressing cells, CRBN Probe, and an amount of DMSO at a concentration equivalent to that added when testing compounds.
Following normalization, the percent inhibition values are plotted as a function of compound concentration and fit to Equation 2. […]

Assay [2] deals with His-tagged recombinant human Gal-3 (hGal-3) (Homo sapiens, UniProt P17931). The experiment in a line: Gal-3 HTRF assay (His-tagged hGal-3 / B-ASF). Type of assay: binding. As to conditions: 15 nM hGal-3, 15 nM B-ASF. Here is the method: ASSAY BUFFER Composition: 25 mM HEPES, 100 mM NaCl, 0.005% Tween 20, 0.05% BSA prepared in sterile water (all reagents from Sigma).
• Positive Control: 100% DMSO (1 μL)+His-tagged hGal-3 (20 μL)+B-ASF (20 μL)+Anti-His Terbium Antibody (5 μL)+Strep d2 Antibody (5 μL). • Negative Control: 100% DMSO (1 μL)+His-tagged hGal-3 (20 μL)+Anti His Terbium Antibody (5 μL)+Strep d2 Aantibody (5 μL). Stocks Preparation:
PROTOCOL: The Gal-3 assays were performed in 384 white Opti plates in three replicates at room temperature with gentle shaking at 250-300 rpmFrom the original stocks, […] working stock concentrations of His-tagged recombinant human Gal-3 (hGal-3) and that of B-ASF were prepared. From the working stock, 20 μL of hGal-3 (15 nM) and 20 μL B-ASF (15 nM) were added to the plates. In Negative Control, only hGal-3 was added. A concentration range of 50× working stocks were prepared for the compounds in 100% DMSO. Aliquots of luL of the compounds were added to the wells and pre-incubated with 20 μL hGal-3 per well for 30 minutes Then 20 μL B-ASF wereadded and incubated for another 1 hour. To detect the signal, 5 μL (final conc. of 1.0 nM) terbium labelled Anti-His antibody was added and incubated for 30 min followed by adding 5 μL (final conc. of 20 nM) Streptavidin d2 and incubation for another 1 hour. The assay signal was detected using HTRF screen protocol (Excitation wavelength=340 nm, emission wavelength=615 nm/665 nm) on Envision 2104 Multilabel Reader. Data analysed using Toolset and Curve Master. Results are reported in the experimental section (IC50 in μM).

For assay [3], the target named is T2, Gal3 (Human Galectin-3) in THP-1 cells (Homo sapiens, UniProt P17931).
T2 construct: host or cells: THP-1
The experiment in a line: ELISA Gal3 Degradation Assay in THP-1 Cells. As to conditions: 48 hours, culture media Gal3 by ELISA. It is filed as cell-based. Here is the method: [formula] ELISA Gal3 Degradation Assay in THP-1 Cells
THP-1 cells (ATCC, Cat #TIB-202), a human monocyte cell line derived from leukemia were plated at 2E6 cells/mL in 200 uL/well of RPMI 1640 (ThermoFisher, Cat #11835) in 96-well plates. Cells were treated with DMSO as a control and various concentrations of compounds for 48 hours. After the treatment, the culture media were collected. The PBS washed cell pellets were lysed in Lysis Buffer (Cell Signaling, Cat #9803) supplemented with 1XProtease Inhibitor Cocktail (Cell Signaling, Cat #5872). Gal3 levels in culture media and cell lysates were quantified by ELISA assays (Human Galectin-3 DuoSet ELISA kit, R&D Systems, Cat #DY1154) according to manufacturer's instructions. The cell culture media were also used for the assessment of cellular toxicity (LDH Assay kit, R&D Systems, DY994). The IC50 (degradation concentration at 50%) values were calculated based on the cellular Gal3 protein levels using DMSO as the control.

[4] abbreviates: test 1, read-out: Supernatant (IC50) test 1.
The mark [5] stands for this setting: test 2, read-out: Supernatant (IC50) test 2.

pIC50: −log10 of the molar value. Where two headings read alike, the source gives them in different places.

T1 sequence (Q96SW2 whole entry, the tested form may be a part): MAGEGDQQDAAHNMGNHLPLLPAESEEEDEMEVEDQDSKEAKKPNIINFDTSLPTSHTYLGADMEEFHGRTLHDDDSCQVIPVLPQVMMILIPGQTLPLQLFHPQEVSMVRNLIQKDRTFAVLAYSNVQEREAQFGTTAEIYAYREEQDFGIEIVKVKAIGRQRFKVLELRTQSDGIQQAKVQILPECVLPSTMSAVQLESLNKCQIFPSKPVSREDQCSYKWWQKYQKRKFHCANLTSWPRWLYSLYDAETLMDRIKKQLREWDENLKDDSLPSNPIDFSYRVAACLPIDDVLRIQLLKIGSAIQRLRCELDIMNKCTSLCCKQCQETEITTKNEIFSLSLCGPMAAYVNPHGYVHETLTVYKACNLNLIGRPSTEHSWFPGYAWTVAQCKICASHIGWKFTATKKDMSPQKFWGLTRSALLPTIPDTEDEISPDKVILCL
Sequence of His-tagged recombinant human Gal-3 (hGal-3) (P17931 whole entry): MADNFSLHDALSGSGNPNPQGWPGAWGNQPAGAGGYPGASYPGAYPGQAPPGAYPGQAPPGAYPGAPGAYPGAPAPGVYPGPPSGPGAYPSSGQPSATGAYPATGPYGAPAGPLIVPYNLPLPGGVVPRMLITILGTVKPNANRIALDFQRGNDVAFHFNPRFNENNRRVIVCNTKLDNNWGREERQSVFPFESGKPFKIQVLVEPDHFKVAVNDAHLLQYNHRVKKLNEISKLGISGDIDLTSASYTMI
T2 sequence (P17931 whole entry): as above

On to `Cc1nc([C@@H]2O[C@H](CO)[C@H](O)[C@H](n3cc(-c4cc(F)c(Cl)c(F)c4)nn3)[C@H]2OCC(=O)N[C@H]2C[C@@H](Oc3ccc(C(=O)Nc4ccc5c(c4)CN([C@H]4CCC(=O)NC4=O)C5=O)nc3)C2)n(-c2cc(Cl)ccc2C(F)(F)F)n1` [Example 5, 5-(cis-3-(2-(((2S,3R,4S,5R,6R)-2-(1-(5-chloro-2-(trifluoromethyl)phenyl)-3-methyl-1H-1,2,4-triazol-5-yl)-4-(4-(4-chloro-3,5-difluorophenyl)-1H-1,2,3-triazol-1-yl)-5-hydroxy-6-(hydroxymethyl)tetrahydro-2H-pyran-3-yl)oxy)acetamido)cyclobutoxy)-N-(2-((S)-2,6-dioxopiperidin-3-yl)-1-oxoisoindolin-5-yl)picolinamide], for which the pIC50 in assay [1] is 7.41; in assay [2], 7.08; in assay [3] (setting [4]), over 8.00; in assay [3] (setting [5]), over 8.00.
`Cc1nc([C@@H]2O[C@H](CO)[C@H](O)[C@H](n3cc(-c4cc(F)c(Cl)c(F)c4)nn3)[C@H]2OCC(=O)N[C@H]2C[C@@H](Oc3ccc(C(=O)Nc4ccc5c(c4)CN([C@@H]4CCC(=O)NC4=O)C5=O)nc3)C2)n(-c2cc(Cl)ccc2C(F)(F)F)n1` [Example 6, 5-(cis-3-(2-(((2S,3R,4S,5R,6R)-2-(1-(5-chloro-2-(trifluoromethyl)phenyl)-3-methyl-1H-1,2,4-triazol-5-yl)-4-(4-(4-chloro-3,5-difluorophenyl)-1H-1,2,3-triazol-1-yl)-5-hydroxy-6-(hydroxymethyl)tetrahydro-2H-pyran-3-yl)oxy)acetamido)cyclobutoxy)-N-(2-((R)-2,6-dioxopiperidin-3-yl)-1-oxoisoindolin-5-yl)picolinamide]: the pIC50 in assay [1] was under 4.30; in assay [2] it was 7.13; in assay [3] (setting [4]), 7.41; in assay [3] (setting [5]), 7.82.
Take `Cc1nc([C@@H]2O[C@H](CO)[C@H](O)[C@H](n3cc(-c4cc(F)c(Cl)c(F)c4)nn3)[C@H]2OCC(=O)N2CC(Oc3ccc(C(=O)Nc4ccc5c(c4)CN(C4CCC(=O)NC4=O)C5=O)cc3)C2)n(-c2cc(Cl)ccc2C(F)(F)F)n1` (stereo partly drawn) [Example 8, 4-((1-(2-(((2S,3R,4S,5R,6R)-2-(1-(5-Chloro-2-(trifluoromethyl)phenyl)-3-methyl-1H-1,2,4-triazol-5-yl)-4-(4-(4-chloro-3,5-difluorophenyl)-1H-1,2,3-triazol-1-yl)-5-hydroxy-6-(hydroxymethyl)tetrahydro-2H-pyran-3-yl)oxy)acetyl)azetidin-3-yl)oxy)-N-(2-(2,6-dioxopiperidin-3-yl)-1-oxoisoindolin-5-yl)benzamide]: the negative logarithm of the IC50 (pIC50) in assay [1] is 5.85; in assay [2], 7.32; in assay [3] (setting [4]), 6.55; in assay [3] (setting [5]) it was 7.42.
Taken in the same sequence, the figures for `Cc1nc([C@@H]2O[C@H](CO)[C@H](O)[C@H](n3cc(-c4cc(F)c(Cl)c(F)c4)nn3)[C@H]2OCC(=O)N2CC(COc3ccc(C(=O)Nc4ccc5c(c4)C(=O)N(C4CCC(=O)NC4=O)C5)cc3)C2)n(-c2cc(Cl)ccc2C(F)(F)F)n1` (stereo partly drawn) [Example 11, 4-((1-(2-(((2S,3R,4S,5R,6R)-2-(1-(5-Chloro-2-(trifluoromethyl)phenyl)-3-methyl-1H-1,2,4-triazol-5-yl)-4-(4-(4-chloro-3,5-difluorophenyl)-1H-1,2,3-triazol-1-yl)-5-hydroxy-6-(hydroxymethyl)tetrahydro-2H-pyran-3-yl)oxy)acetyl)azetidin-3-yl)methoxy)-N-(2-(2,6-dioxopiperidin-3-yl)-3-oxoisoindolin-5-yl)benzamide] were 5.90, 7.40, 7.46 and 7.57.
With `Cc1nc([C@@H]2O[C@H](CO)[C@H](O)[C@H](n3cc(-c4cc(F)c(Cl)c(F)c4)nn3)[C@H]2OCC(=O)N[C@H]2C[C@H](Oc3ccc(C(=O)Nc4ccc5c(c4)CN(C4CCC(=O)NC4=O)C5=O)nc3)C2)n(-c2cc(Cl)ccc2C(F)(F)F)n1` (stereo partly drawn) [Example 18], the pIC50 was 6.96 in assay [1], 6.66 in assay [2], 7.89 in assay [3] (setting [4]) and 7.85 in assay [3] (setting [5]).
For the molecule `Cc1nc([C@@H]2O[C@H](CO)[C@H](O)[C@H](n3cc(-c4cc(F)c(Cl)c(F)c4)nn3)[C@H]2OCC(=O)N[C@H]2C[C@@H](Oc3ccc(C(=O)Nc4cccc5c4CN(C4CCC(=O)NC4=O)C5=O)nc3)C2)n(-c2cc(Cl)ccc2C(F)(F)F)n1` (stereo partly drawn) [Example 21], the pIC50 in assay [1] was 6.03; in assay [2] it was 7.15; in assay [3] (setting [4]) it was 5.98; in assay [3] (setting [5]) it was 7.64.
Take `Cc1nc([C@@H]2O[C@H](CO)[C@H](O)[C@H](n3cc(-c4cc(F)c(Cl)c(F)c4)nn3)[C@H]2OCC(=O)N[C@H]2C[C@@H](Oc3ccc(C(=O)Nc4ccc5c(c4)C(=O)N(C4CCC(=O)NC4=O)C5)nc3)C2)n(-c2cc(Cl)ccc2C(F)(F)F)n1` (stereo partly drawn) [Example 23]: the negative-log IC50 (pIC50) in assay [1] was 7.15; in assay [2], 7.38; in assay [3] (setting [4]), 7.72; in assay [3] (setting [5]), over 8.00.
`Cc1nc([C@@H]2O[C@H](CO)[C@H](O)[C@H](n3cc(-c4cc(F)c(Cl)c(F)c4)nn3)[C@H]2OCCOc2ccc(C(=O)Nc3ccc4c(c3)CN(C3CCC(=O)NC3=O)C4=O)cc2)n(-c2cc(Cl)ccc2C(F)(F)F)n1` (stereo partly drawn) [Example 25]: the pIC50 in assay [1] was 5.57; in assay [2], 6.86; in assay [3] (setting [4]), 5.77; in assay [3] (setting [5]) it was 6.28.
Taken in the same sequence, the figures for `Cc1nc([C@@H]2O[C@H](CO)[C@H](O)[C@H](n3cc(-c4cc(F)c(Cl)c(F)c4)nn3)[C@H]2OCC(=O)N2CC(COc3ccc(C(=O)Nc4ccc5c(c4)CN(C4CCC(=O)NC4=O)C5=O)nc3)C2)n(-c2cc(Cl)ccc2C(F)(F)F)n1` (stereo partly drawn) [Example 26] were 6.60, 7.07, 8.05 and 8.05.
In the case of `Cc1nc([C@@H]2O[C@H](CO)[C@H](O)[C@H](n3cc(-c4cc(F)c(Cl)c(F)c4)nn3)[C@H]2OCC(=O)N2CCC(COc3ccc(C(=O)Nc4ccc5c(c4)CN(C4CCC(=O)NC4=O)C5=O)cc3)CC2)n(-c2cc(Cl)ccc2C(F)(F)F)n1` (stereo partly drawn) [Example 27], the pIC50 in assay [1] was 6.43; in assay [2] it was 6.51; in assay [3] (setting [5]) it was 7.40.
